According to article PMC6584114, “Metabolism of IMM-H004 and Its Pharmacokinetic-Pharmacodynamic Analysis in Cerebral Ischemia/Reperfusion Injured Rats” (Frontiers in Pharmacology, 2019):

Experiments:
[1] = tested on: rat liver microsomes (RLMs); assay: Kinetics of IMM-H004 demethylation (M1 and M2 formation) in rat liver microsomes; format: in vitro ADME; settings: substrate IMM-H004
Description: (§1) To compare the metabolic capability of IMM-H004 demethylation in rat and human liver microsomes, the kinetics of M1 and M2 formation in HLMs or RLMs were determined. Enzyme kinetic experiments were performed in triplicate. The incubation mixtures contained HLM/RLM (1 mg protein/ml), IMM-H004 (0.1–1,800 μM), and NADPH (1.2 mM) in a final volume of 0.2 ml Tris-HCl buffer (50 mM, pH 7.4) containing 5 mM MgCl2. The reaction was incubated at 37°C for 20 min and stopped by adding 200 μL of ice-cold acetonitrile containing IS (100 ng/ml). After vortex-mixing and centrifugation, M1 and M2 in the supernatant were analyzed by LC-MS/MS.
(§2) The LC-MS/MS system consisted of Shimadzu 30A UPLC and API 4000 triple quadruple mass spectrometer (AB SCIEX, USA). Data acquisition and analysis were accomplished using Analyst 1.5.2 software. The analytes and IS were chromatographed by injection of 1 μL sample. The mobile phases consisted of solvent A (0.5% formic acid in water) and solvent B (0.5% formic acid in methanol) at a flow rate of 0.3 ml/min on an Eclipse Plus C18 column (2.1 mm × 50 mm, 3.5 μm, Agilent, USA), and the operating temperature was 40°C. The elution condition was 10% solvent B for 0.7 min, ascending to 98% B in 2.3 min, holding for 3.0 min and reequilibrating to 10% B within 0.1 min and maintained for 2.4 min (Jiang JW, 2018). The specific transitions monitored were 305→248 for IMM-H004, 291→234 for M1, 291→248 for M2, 481→305 for IMM-H004G, 385→305 for M4, and 260→183 for IS.

MCAO/R rats = assay: Neuroprotection in transient MCAO/R rats (infarct volume, neurological score); format: in vivo, rat; settings: 10 mg/kg iv after reperfusion, 24 h, vs model
Text: Transient MCAO/R was applied to compare the neuroprotection of IMM-H004 and IMM-H004G. Rats were fasted overnight with free access to water and randomly assigned to different groups. Rats were anesthetized with a mixture of 5% isoflurane and 95% oxygen and maintained with a mixture of 3% isoflurane and 97% oxygen during the surgical procedure. A 4-0 nylon thread, the tip of which was burned (diameter 0.36 mm), was inserted into the right internal carotid artery and advanced until the origin of the right MCA was occluded. After 60 min of the occlusion, the thread was withdrawn to allow reperfusion, and then the rats were returned to the chamber. Saline or edaravone at dose of 6 mg/kg or IMM-H004 citrate and IMM-H004G at dose of 10 mg/kg (dissolved in saline to yield a concentration of 2 mg/ml) were administered by intravenous injection immediately after reperfusion.
The rats were assessed for neurologic deficits at 24 h after reperfusion according to Zea Longa’s five-point scale. […] The animals without symptoms of neurological impairment or dying after the surgery were rejected. All animals were killed 24 h after reperfusion. Brains of the animals were removed and cut into 2 mm-thick slices, for a total of six slices per animal. The slices were immersed in a 2% solution of 2,3,5-triphenyltetrazolium chloride in phosphate buffered saline at 37°C for 20 min and then fixed in 4% formaldehyde overnight. Images of the slices were obtained with a scanner and a computer. The infarct area and the total area were calculated by tracing the areas on the computer screen with Image J. The percentage of the infarct volume was expressed as the infarct volumes (white parts)/the whole volume of the cortex.

[2] = tested on: human liver microsomes (HLMs), UGT; assay: Kinetics of IMM-H004G formation (glucuronidation) in UDPGA-supplemented human liver microsomes; format: in vitro ADME; settings: substrate IMM-H004
Description: To explore glucuronidation difference of IMM-H004 between humans and rats, the kinetics of IMM-H004G formation in UDPGA-supplemented HLMs and RLMs were determined. The incubation mixtures consisted of HLMs or RLMs (0.025 mg protein/ml), alamethicin (50 μg/mg protein), IMM-H004 (0.5–2,500 μM), and UDPGA (5 mM) in a final volume of 0.2 ml Tris-HCl buffer (50 mM, pH 7.4) containing 5 mM MgCl2. HLM or RLM was preincubated with alamethicin on ice for 15 min. The reaction was incubated at 37°C for 10 min and quenched by adding 200 μL of ice-cold acetonitrile containing IS (100 ng/ml). After vortex-mixing and centrifugation, IMM-H004G in the supernatant was analyzed by LC-MS/MS.
as §2, with “The elution condition was 10% solvent B for 0.7 min, ascending to 98% B in 2.3 min, holding for 3.0 min and reequilibrating to 10% B within 0.1 min and maintained for 2.4 min (Jiang JW, 2018).” left out

[3] = parameters: method as in Zhang et al., 2017; settings: rat plasma and brain, 6 mg/kg; ref Zhang et al., 2017; cited from earlier work
[4] = tested on: human liver microsomes (HLMs); assay: Kinetics of IMM-H004 demethylation (M1 and M2 formation) in human liver microsomes; format: in vitro ADME; settings: substrate IMM-H004
Description: as §1, §2

PC12 cells = assay: Neuroprotection in oxygen-glucose deprivation injured PC12 cells (MTT cell viability); format: cell-based; settings: 1 and 10 μM, 24 h, MTT, vs model group
Description: The neuroprotective activity of IMM-H004 and IMM-H004G was evaluated on PC12 cells damaged by oxygen-glucose deprivation (OGD). PC12 cells were purchased from the American Type Culture Collection. Cultures were maintained at 37°C in 5% CO2 in a humidified incubator. For cell viability assay, PC12 cells were incubated in 96-well plates at a density of 5 × 10^4/ml for 24 h. In the sham group, PC12 cells were cultured in Dulbecco’s modified eagle medium supplemented with 5% fetal bovine serum and 5% equine serum (Gibco, USA). In the OGD group, PC12 cells were cultured in glucose-free Earle’s balanced salt solution supplemented with 15 mM Na2S2O4 for 2 h and then incubated with compounds of nerve growth factor (NGF, 10 μM), edaravone (10 μM, 50 μM), IMM-H004 (1 μM, 10 μM), and IMM-H004G (1 μM, 10 μM), respectively. After 24 h of incubation, MTT (5 mg/ml) was added into the cell cultures and incubated for an additional 4 h. Then the supernatant was removed and 100 μL DMSO was added. Absorbance was measured using an Ultramark microplate reader at a wavelength of 562 nm. The cell viability was expressed as a percentage of the absorbance density value of control cultures.

[5] = parameters: method as in Jiang et al., 2018; settings: rat brain; ref Jiang et al., 2018; cited from earlier work

COc1cc(O)cc2oc(=O)c(N3CCN(C)CC3)c(C)c12 [IMM-H004, 7-hydroxy-5-methoxy-4-methyl-3-(4-methylpiperazin-1-yl)-coumarin]
K m of M1 formation (6-demethylation) [1]: 1,244.0 μM
K m of M2 formation (N-demethylation) [1]: 111.9 µM
V max of M1 formation (6-demethylation) [1]: 1.34 nmol/min/mg protein
V max of M2 formation (N-demethylation) [1]: 0.12 nmol/min/mg protein
infarct volume (MCAO/R rats): markedly reduced (p < 0.01)
neurological test score (MCAO/R rats): significant improvement (p < 0.01)
K m of IMM-H004G formation (glucuronidation) [2]: 119.3 µM
V max of IMM-H004G formation (glucuronidation) [2]: 3.25 nmol/min/mg protein
elimination half-life (t 1/2β) [3]: 11.4 min
K m of M1 formation (6-demethylation) [4]: 2,935.0 μM
K m of M2 formation (N-demethylation) [4]: 491.4 µM
V max of M1 formation (6-demethylation) [4]: 1.99 nmol/min/mg protein
V max of M2 formation (N-demethylation) [4]: 0.07 nmol/min/mg protein
cell viability of OGD-injured PC12 cells (PC12 cells): significant (p < 0.05) preservation of viability
T max (crossing the blood–brain barrier) [5]: 12.6 min
